In brackets after ≈: the same amount, converted by molar mass. Where two headings read alike, the source gives them in different places.
How the values were obtained:
[1] = test system: human granulocytes (buffy coat); test: Inhibition of histamine release from granulocytes (A23187-induced granulocyte activation); assay type: cell-based; settings: for IC50: 20 min, A23187 (5 μM), 20 min/37° C.
Protocol: In the present studies, effects on granulocyte activation was studied as inhibition of histamine release from human granulocytes (buffy coat) by norketotifen. The method is a modification of the method described by Nolte, H. et al., 1988. Granulocytes were obtained from human volunteers and mediator release was induced by incubation (20 min/37° C.) with the calcium ionophore A23187 (5 μM) in the presence or absence of a test article. Histamine was selected as an indicator for mediator release because of the ease with which histamine can be analyzed, using commercially available kits. The test articles were evaluated, in duplicate, at five concentrations and IC50-values were calculated.
The calcium ionophore A23187 was used to increase intracellular calcium concentration of the granulocytes.

[2] = Solubility of norketotifen (saturated solutions, HPLC); assay type: physicochemical; settings: for solubility: thermodynamic from solid
Protocol: Saturated solutions of norketotifen were prepared at room temperature by stirring, overnight sonication and filtering of the saturated supernatant solutions. An HPLC method for the determination of concentrations of norketotifen was developed:
The HPLC system was a HP 1050 with a variable wavelength detector. […] The relative standard deviation was approximately 0.3 percent for the main peak area.

H-1 = target: T1, H-1 (Rattus norvegicus, UniProt P31390); test: Antihistaminic (H-1) activity in vivo after oral administration (histamine wheal); design: species or system rats; settings: for Histamine (wheal area): 60 min before intradermal histamine; for Saline (wheal area): intradermal histamine vehicle
T1 construct: two intradermal injections of histamine; from tissue; host or cells: dorsal skin of live male rats (in vivo)
Protocol: Male rats (150-200 g) were starved overnight and twelve hours after dorsal depilation, the animals were dosed orally with the test compound(s). Four dorsal test areas were marked with permanent ink. Exactly 60 min after the dosing of the test compound, two intradermal injections of histamine (50 microliter; 1.0 mg/ml of histamine di-HCl) were performed, one on each side on the back of the animal. Two intradermal injections of the vehicle for the histamine solution were also performed. Evans blue dye (20 mg/kg) was injected iv 1 minute prior to the intra-dermal injections of histamine and the histamine vehicle. Twenty minutes were allowed for the wheal response to fully develop, whereupon the animals were euthanized and the dorsal skin containing the intradermal wheals was deflected. The blue spotted areas were measured in square millimeters and the duplicate vehicle wheal responses were averaged. […] The inhibition was calculated in percent difference from the corresponding vehicle baseline value.

[3] = Stability of norketotifen formulations; assay type: physicochemical; settings: pH 6.5; accelerated testing (55° C.)
Protocol: Stability of norketotifen formulations was studied after incubation at various temperatures, acidity and time intervals. The concentrations of norketotifen were measured after incubation periods of various lengths.

rabbit eyes = test: Ocular irritation test; assay type: in vivo, New Zealand White rabbits; settings: excipient-free solution 0.0345% in water or saline; rabbit eye, seven instillations of 0.1 ml
Protocol: New Zealand White rabbits, weighing 2 to 4 kilograms were used. Test formulation, in volumes of 0.1 ml were instilled into the conjunctival sac of six rabbit eyes of groups. Said volume of each formulation was repeatedly instilled every 30 minutes for 3 hours (a total of seven instillation into the eyes of rabbits. Ocular irritation was scored according to both Draize et al., 1944 and Kay and Calandra, 1962. Scorings were performed before each instillation and 30 minutes, 3 hours and 24 hours after the last instillation.
The formulations of norketotifen in Table 7 were prepared and tested and the results were compared with irritation by norketotifen in excipient-free solutions. […] In the present study, norketotifen HF was dissolved to an intended concentration of 0.276 percent in the various solutions, using stirring and over-night sonication at room temperature. After sonication, all solutions were filtered through a 0.45 μm non-pyrogenic MILLEX® HV filter unit before being used for ocular tests. Thus, all of the solutions used for the ocular irritation tests in Table 7 contained the highest possible concentrations of norketotifen HF.
Solutions of norketotifen were similarly prepared in excipient-free solutions containing only norketotifen HF 0.0345 percent by weight, dissolved in water or in saline, and filtered as described above. […]

[4] = water, read-out: water solubility

T1 sequence (P31390 whole entry): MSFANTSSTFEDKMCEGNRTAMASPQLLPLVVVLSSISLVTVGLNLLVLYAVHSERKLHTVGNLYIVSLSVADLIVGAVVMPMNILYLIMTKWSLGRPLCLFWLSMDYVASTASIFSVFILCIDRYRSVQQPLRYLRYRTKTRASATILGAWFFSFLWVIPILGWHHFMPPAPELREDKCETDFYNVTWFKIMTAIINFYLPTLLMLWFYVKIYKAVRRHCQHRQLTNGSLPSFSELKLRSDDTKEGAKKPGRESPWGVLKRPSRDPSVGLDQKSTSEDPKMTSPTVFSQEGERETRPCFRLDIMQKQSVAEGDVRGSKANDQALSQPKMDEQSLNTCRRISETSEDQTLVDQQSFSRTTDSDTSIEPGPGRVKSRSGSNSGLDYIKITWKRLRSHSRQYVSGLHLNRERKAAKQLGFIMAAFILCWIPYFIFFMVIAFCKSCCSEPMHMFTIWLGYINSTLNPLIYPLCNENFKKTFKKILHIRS

CN1CCC(=C2c3ccccc3CC(=O)c3sccc32)CC1 [ketotifen]
IC50 [1]: 91 µM
solubility [2, 4]: ~12500 µg/mL (≈ 40.4 mM)

O=C1Cc2ccccc2C(=C2CCNCC2)c2ccsc21 [norketotifen FB]
solubility of free base in non-aqueous solvents ([2]; propylene glycol, glycerin, ethanol and isopropyl alcohol): can be dissolved

O=C1Cc2ccccc2C(=C2CCNCC2)c2ccsc21 [norketotifen]
IC50 [1]: 9.2 µM
activity relative to ketotifen in inhibiting granulocyte activation (anti-inflammatory) ([1]; A23187-induced): about ten times more potent than ketotifen
inhibition at 1 mg/kg (H-1; rat, po): 6%
inhibition at 10 mg/kg (H-1; rat, po): 83%
inhibition at 50 mg/kg (H-1; rat, po): 100%
absorption after oral administration (H-1; rats, oral): well absorbed
antihistaminic potency relative to diphenhydramine (H-1; rats, oral): more potent than the reference compound
Histamine effect (H-1; rats, oral, 1 mg/kg): 92 mm^2
Histamine (wheal area) (H-1; rats, oral, 1 mg/kg): 114 ± 8 mm^2
Saline (wheal area) (H-1; rats, oral, 1 mg/kg): 22 ± 1 mm^2
Histamine effect (H-1; rats, oral, 10 mg/kg): 17 mm^2
Histamine (wheal area) (H-1; rats, oral, 10 mg/kg): 39 ± 2 mm^2
Saline (wheal area) (H-1; rats, oral, 10 mg/kg): 22 ± 1 mm^2
Histamine effect (H-1; rats, oral, 50 mg/kg): 0 mm^2
Histamine (wheal area) (H-1; rats, oral, 50 mg/kg): 10 ± 1 mm^2
Saline (wheal area) (H-1; rats, oral, 50 mg/kg): 12 ± 1 mm^2
antihistaminic activity relative to ketotifen (H-1; tested in vivo (Example 12)): about half of that of ketotifen
soluble in polyethylene glycol (PEG 300) ([2]; PEG 300): up to 0.15 percent w/w
solubility ([2]; pH 8.6, aqueous buffer, read-out: solubility of norketotifen in water): 2100 µg/mL (≈ 7.11 mM)
solubility ([2]; pH 8.75, aqueous buffer, read-out: solubility of norketotifen in water): ~1000 µg/mL (≈ 3.39 mM)
soluble in propylene glycol ([2]; propylene glycol): up to 1.0 percent by weight
solubility ([2]; propylene glycol, organic solvent or mixture, read-out: solubility of norketotifen in propylene glycol): ~10000 µg/mL (≈ 33.9 mM)
can be dissolved in water ([2]; water): up to 0.216 percent by weight
solubility [2, 4]: ~2160 µg/mL (≈ 7.31 mM)
stability in solution formulations [3]: not stable
ocular irritation (Draize; Kay and Calandra scoring) (rabbit eyes): caused irritation

From US8765787B2, “Methods of treatment of xerophthalmia with self-preserving ocular formulations of norketotifen” (Bridge Pharma, Inc., priority 2008, dated 2014)
